Measured values reported in the supplement of paper PMC11208160.

Assay: recombinant UMI read abundance after kanamycin selection (control-corrected) (log10(CPM+1)); higher = more efficient recombination; extreme values may be limits of the assay; sequences stand for … in AGTGCAGAGAAAATCGGCCAGTTTTCTCTGCCTGCAGTCCGCATGCCGTGGGACCCCTTGGGTTCTAACCTGTTGCCTAGATTTATGCAGCGGACTGCCTTTCTCCCAAAGTGATAAACCGG…AGGTTGGTTTCACT; site = the 11-nt donor
Summary of the method: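 Reported values are log10(CPM+1) from a pooled Escherichia coli screen of donor and donor-binding-loop pairs for the IS621 bridge recombinase. Selection used IPTG (0.07 mM) plus kanamycin, against unselected plating, each in two replicates. Recombinant UMIs were amplified across the donor–target junction, sequenced, converted to CPM, averaged over replicates and scaled by control-derived factors.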
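Further: IS621 bridge recombinase in Escherichia coli cells against a fixed T5 target plasmid.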

Row | Sequence | recombinant UMI read abundance (log10)
1 | GACAGCTCATGGACCGGTTTTCCCGGTAATCCGTATTTGTC (site GACAGCTCTGA) | 1.15
2 | GACCAGCCATGGACCGGTTTTCCCGGTAATCCGTATTTGTT (site GACCAGCCTAA) | 0
3 | GACCGCTCATGGACCGGTTTTCCCGGTAATCCGTATTTGGC (site GACCGCTCTGC) | 2.43
4 | GACCGGGCATGGACCGGTTTTCCCGGTAATCCGTATTTGAA (site GACCGGGCTTT) | 0.143
5 | GACCGGGCATGGACCGGTTTTCCCGGTAATCCGTATTTGCG (site GACCGGGCTCG) | 0
6 | GACCGTTCATGGACCGGTTTTCCCGGTAATCCGTATTTGCT (site GACCGTTCTAG) | 1.7
7 | GACCTCTCATGGACCGGTTTTCCCGGTAATCCGTATTTGTA (site GACCTCTCTTA) | 2.09
8 | GACCTTTCATGGACCGGTTTTCCCGGTAATCCGTATTTGTT (site GACCTTTCTAA) | 0
9 | GACGACGCATGGACCGGTTTTCCCGGTAATCCGTATTTGTC (site GACGACGCTGA) | 2.6
10 | GACGATTCATGGACCGGTTTTCCCGGTAATCCGTATTTGAT (site GACGATTCTAT) | 2.03
11 | GACGATTCATGGACCGGTTTTCCCGGTAATCCGTATTTGTT (site GAAGATTCTAA) | 0.149
12 | GACGATTCATGGACCGGTTTTCCCGGTAATCCGTATTTGTT (site GACGATTCTAA) | 2.04
13 | GACGATTCATGGACCGGTTTTCCCGGTAATCCGTATTTGTT (site GAGGATTCTAA) | 0
14 | GACGATTCATGGACCGGTTTTCCCGGTAATCCGTATTTGTT (site GATGATTCTAA) | 0.263
15 | GACGGCCCATGGACCGGTTTTCCCGGTAATCCGTATTTGTT (site AACGGCCCTAA) | 0.00882
16 | GACGGCCCATGGACCGGTTTTCCCGGTAATCCGTATTTGTT (site CACGGCCCTAA) | 0.0467
17 | GACGGCCCATGGACCGGTTTTCCCGGTAATCCGTATTTGTT (site GACGGCCCTAA) | 0
18 | GACGGCCCATGGACCGGTTTTCCCGGTAATCCGTATTTGTT (site TACGGCCCTAA) | 0.00762
19 | GACTAACCATGGACCGGTTTTCCCGGTAATCCGTATTTGGT (site GACAAACCTAC) | 0.0462

Row | Sequence | recombinant UMI read abundance (log10)
20 | GACTAACCATGGACCGGTTTTCCCGGTAATCCGTATTTGGT (site GACCAACCTAC) | 0.00701
21 | GACTAACCATGGACCGGTTTTCCCGGTAATCCGTATTTGGT (site GACGAACCTAC) | 0
22 | GACTAACCATGGACCGGTTTTCCCGGTAATCCGTATTTGGT (site GACTAACCTAC) | 0
23 | GACTATTCATGGACCGGTTTTCCCGGTAATCCGTATTTGTA (site GACTATTCTTA) | 1.34
24 | GACTCCTCATGGACCGGTTTTCCCGGTAATCCGTATTTGAA (site GACTCCTCTTT) | 1.75
25 | GACTGATCATGGACCGGTTTTCCCGGTAATCCGTATTTGGC (site GACTGATCTGC) | 2.46
26 | GACTGGACATGGACCGGTTTTCCCGGTAATCCGTATTTGAC (site GAATGGACTGT) | 0
27 | GACTGGACATGGACCGGTTTTCCCGGTAATCCGTATTTGAC (site GACTGGACTGT) | 1.89
28 | GACTGGACATGGACCGGTTTTCCCGGTAATCCGTATTTGAC (site GAGTGGACTGT) | 0.438
29 | GACTGGACATGGACCGGTTTTCCCGGTAATCCGTATTTGAC (site GATTGGACTGT) | 0
30 | GACTGGCCATGGACCGGTTTTCCCGGTAATCCGTATTTGCA (site GAATGGCCTTG) | 0
31 | GACTGGCCATGGACCGGTTTTCCCGGTAATCCGTATTTGCA (site GACTGGCCTTG) | 0
32 | GACTGGCCATGGACCGGTTTTCCCGGTAATCCGTATTTGCA (site GAGTGGCCTTG) | 0
33 | GACTGGCCATGGACCGGTTTTCCCGGTAATCCGTATTTGCA (site GATTGGCCTTG) | 0.0169
34 | GAGAAAACATGGACCGGTTTTCCCGGTAATCCGTATTTGCT (site GAGAAAACTAG) | 1.16
35 | GAGAAAACATGGACCGGTTTTCCCGGTAATCCGTATTTGCT (site GCGAAAACTAG) | 0.0152
36 | GAGAAAACATGGACCGGTTTTCCCGGTAATCCGTATTTGCT (site GGGAAAACTAG) | 0
37 | GAGAAAACATGGACCGGTTTTCCCGGTAATCCGTATTTGCT (site GTGAAAACTAG) | 0
38 | GAGAAATCATGGACCGGTTTTCCCGGTAATCCGTATTTGCG (site GAGAAATCTCG) | 0

Row | Sequence | recombinant UMI read abundance (log10)
39 | GAGAACCCATGGACCGGTTTTCCCGGTAATCCGTATTTGGA (site GAGAACCCTTC) | 0
40 | GAGAAGACATGGACCGGTTTTCCCGGTAATCCGTATTTGAA (site GAGAAGACTTT) | 1.82
41 | GAGAAGCCATGGACCGGTTTTCCCGGTAATCCGTATTTGTC (site GAGAAGCCTGA) | 0
42 | GAGAATACATGGACCGGTTTTCCCGGTAATCCGTATTTGCA (site AAGAATACTTG) | 0
43 | GAGAATACATGGACCGGTTTTCCCGGTAATCCGTATTTGCA (site CAGAATACTTG) | 0.0136
44 | GAGAATACATGGACCGGTTTTCCCGGTAATCCGTATTTGCA (site GAGAATACTTG) | 2.23
45 | GAGAATACATGGACCGGTTTTCCCGGTAATCCGTATTTGCA (site TAGAATACTTG) | 0.944
46 | GAGACGCCATGGACCGGTTTTCCCGGTAATCCGTATTTGCC (site GAGACGCCTGG) | 0
47 | GAGACGGCATGGACCGGTTTTCCCGGTAATCCGTATTTGAG (site GAGACGGCTCT) | 0.892
48 | GAGACTCCATGGACCGGTTTTCCCGGTAATCCGTATTTGTA (site GAGACTCCTTA) | 0.807
49 | GAGCACACATGGACCGGTTTTCCCGGTAATCCGTATTTGGA (site GAGCACACTTC) | 0.594
50 | GAGCCTTCATGGACCGGTTTTCCCGGTAATCCGTATTTGGT (site AAGCCTTCTAC) | 0.678
51 | GAGCCTTCATGGACCGGTTTTCCCGGTAATCCGTATTTGGT (site CAGCCTTCTAC) | 0.79
52 | GAGCCTTCATGGACCGGTTTTCCCGGTAATCCGTATTTGGT (site GAGCCTTCTAC) | 0.859
53 | GAGCCTTCATGGACCGGTTTTCCCGGTAATCCGTATTTGGT (site TAGCCTTCTAC) | 0.0029
54 | GAGCGAGCATGGACCGGTTTTCCCGGTAATCCGTATTTGTA (site GAGCGAGCTTA) | 2.57
55 | GAGCTCACATGGACCGGTTTTCCCGGTAATCCGTATTTGAC (site GAGCTCACTAT) | 1
56 | GAGCTCACATGGACCGGTTTTCCCGGTAATCCGTATTTGAC (site GAGCTCACTCT) | 0.476
57 | GAGCTCACATGGACCGGTTTTCCCGGTAATCCGTATTTGAC (site GAGCTCACTGT) | 2.53
